Reference: the supplement of paper PMC10307832

How the values were obtained:
Assay in all cases: relative viability (nuclei count vs DMSO), 5 days (fraction); higher = more cells survive
BX 795 + Palbociclib = compound: O=C(NCCCNc1nc(Nc2cccc(NC(=O)N3CCCC3)c2)ncc1I)c1cccs1 [BX 795] + CC(=O)c1c(C)c2cnc(Nc3ccc(N4CCNCC4)cn3)nc2n(C2CCCC2)c1=O [Palbociclib] (partner 0.5 µM)
Summary of the method: (§1)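 Lung cancer cell lines, seeded in 1536-well plates, were treated the following day by pin tool with a single drug or with five library-drug doses (not always all listed) in √10 steps on top of a fixed anchor-drug dose. Cells were fixed and nuclei stained in one step after 5 days, and nuclei were counted. Relative viability is the nuclei count for treated wells divided by that for vehicle wells, reported as medians of duplicate plates.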

BX 795 + Bortezomib = compound: O=C(NCCCNc1nc(Nc2cccc(NC(=O)N3CCCC3)c2)ncc1I)c1cccs1 [BX 795] + CC(C)C[C@H](NC(=O)[C@H](Cc1ccccc1)NC(=O)c1cnccn1)B(O)O [Bortezomib] (partner 0.002 µM)
Summary of the method: as §1

BX 795 + Navitoclax = compound: O=C(NCCCNc1nc(Nc2cccc(NC(=O)N3CCCC3)c2)ncc1I)c1cccs1 [BX 795] + CC1(C)CCC(c2ccc(Cl)cc2)=C(CN2CCN(c3ccc(C(=O)NS(=O)(=O)c4ccc(N[C@H](CCN5CCOCC5)CSc5ccccc5)c(S(=O)(=O)C(F)(F)F)c4)cc3)CC2)C1 [Navitoclax] (partner 0.5 µM)
Summary of the method: as §1

BX 795 + OSI-027 = compound: O=C(NCCCNc1nc(Nc2cccc(NC(=O)N3CCCC3)c2)ncc1I)c1cccs1 [BX 795] + COc1cccc2cc(-c3nc([C@H]4CC[C@H](C(=O)O)CC4)n4ncnc(N)c34)[nH]c12 [OSI-027] (partner 0.5 µM)
Summary of the method: as §1

BX 795 + Decitabine = compound: O=C(NCCCNc1nc(Nc2cccc(NC(=O)N3CCCC3)c2)ncc1I)c1cccs1 [BX 795] + Nc1ncn([C@H]2C[C@H](O)[C@@H](CO)O2)c(=O)n1 [Decitabine] (partner 2 µM)
Summary of the method: as §1

| Cell Line | relative viability (BX 795 + Palbociclib; first compound 0.04 µM) | relative viability (BX 795 + Palbociclib; first compound 0.1265 µM) | relative viability (BX 795 + Palbociclib; first compound 0.4 µM) | relative viability (BX 795 + Palbociclib; first compound 1.265 µM) | relative viability (BX 795 + Bortezomib; first compound 0.04 µM) | relative viability (BX 795 + Bortezomib; first compound 0.1265 µM) | relative viability (BX 795 + Bortezomib; first compound 0.4 µM) | relative viability (BX 795 + Bortezomib; first compound 1.265 µM) | relative viability (BX 795 + Navitoclax; first compound 0.04 µM) | relative viability (BX 795 + Navitoclax; first compound 0.1265 µM) | relative viability (BX 795 + Navitoclax; first compound 0.4 µM) | relative viability (BX 795 + Navitoclax; first compound 1.265 µM) | relative viability (BX 795 + OSI-027; first compound 0.04 µM) | relative viability (BX 795 + OSI-027; first compound 0.1265 µM) | relative viability (BX 795 + OSI-027; first compound 0.4 µM) | relative viability (BX 795 + OSI-027; first compound 1.265 µM) | relative viability (BX 795 + Decitabine; first compound 0.04 µM) | relative viability (BX 795 + Decitabine; first compound 0.1265 µM) | relative viability (BX 795 + Decitabine; first compound 0.4 µM) | relative viability (BX 795 + Decitabine; first compound 1.265 µM) |
| --- | --- | --- | --- | --- | --- | --- | --- | --- | --- | --- | --- | --- | --- | --- | --- | --- | --- | --- | --- | --- |
| LCLC-97TM1 | 0.22 | 0.201 | 0.314 | 0.208 | 0.563 | 0.527 | 0.954 | 0.417 | 0.398 | 0.45 | 0.529 | 0.432 | 0.462 | 0.604 | 0.673 | 0.332 | 0.268 | 0.264 | 0.367 | 0.227 |
| LOU-NH91 | 0.5 | 0.478 | 0.558 | 0.5 | 0.528 | 0.498 | 0.562 | 0.507 | 0.686 | 0.735 | 0.594 | 0.686 | 0.794 | 0.75 | 0.735 | 0.724 | 0.818 | 0.791 | 0.803 | 0.798 |
| LU99A | 0.434 | 0.406 | 0.36 | 0.277 | 1.23 | 1.02 | 0.8 | 0.773 | 1.03 | 0.755 | 0.821 | 0.498 | 0.306 | 0.296 | 0.287 | 0.257 | 0.967 | 0.81 | 0.921 | 0.428 |
| LXF-289 | 0.671 | 0.595 | 0.638 | 0.579 | 0.981 | 1 | 0.977 | 0.967 | 0.971 | 0.926 | 0.975 | 0.628 | 0.793 | 0.898 | 0.959 | 0.681 | 0.448 | 0.347 | 0.582 | 0.373 |
| NCI-H23 | 0.457 | 0.43 | 0.567 | 0.464 | 1.05 | 1.31 | 0.987 | 1.26 | 0.983 | 0.916 | 0.672 | 0.355 | 0.6 | 0.701 | 0.621 | 0.506 | 0.298 | 0.234 | 0.346 | 0.315 |
| NCI-H322M | 0.486 | 0.468 | 0.571 | 0.587 | 1.39 | 1.26 | 1.44 | 1.39 | 1.41 | 1.19 | 1.35 | 1.25 | 0.614 | 0.587 | 0.414 | 0.559 | 0.87 | 0.887 | 0.801 | 0.741 |
| NCI-H441 | 0.22 | 0.204 | 0.243 | 0.184 | 0.393 | 0.541 | 0.747 | 0.577 | 0.867 | 0.429 | 1.03 | 0.564 | 0.731 | 0.57 | 0.891 | 0.399 | 0.281 | 0.262 | 0.316 | 0.245 |
| NCI-H460 | 0.163 | 0.156 | 0.0784 | 0.149 | 1.1 | 1.27 | 1.08 | 1.09 | 1.1 | 1.25 | 1.16 | 0.973 | 0.633 | 0.561 | 0.543 | 0.224 | 0.497 | 0.584 | 0.446 | 0.403 |
| NCI-H520 | 0.189 | 0.263 | 0.187 | 0.177 | 0.355 | 0.36 | 0.356 | 0.308 | 0.736 | 1.12 | 0.95 | 0.535 | 0.226 | 0.255 | 0.19 | 0.201 | 0.55 | 0.545 | 0.622 | 0.425 |
| NCI-H647 | 0.425 | 0.365 | 0.384 | 0.3 | 0.913 | 1.11 | 0.801 | 0.3 |  | 1.08 | 1.07 | 1.01 | 0.723 | 0.826 | 0.581 | 0.584 | 0.383 | 0.447 | 0.513 | 0.37 |
| NCI-H727 | 0.634 | 0.61 | 0.67 | 0.696 | 1.05 | 0.962 | 0.926 | 0.739 | 0.45 | 0.535 | 0.471 | 0.37 | 0.761 | 0.635 | 0.537 | 0.557 | 1.23 | 0.943 | 0.845 | 0.905 |
| NCI-H838 | 0.231 | 0.234 | 0.197 | 0.172 | 0.841 | 0.792 | 0.719 | 0.401 | 1.05 | 1.1 | 1.02 | 0.519 | 0.386 | 0.338 | 0.379 | 0.303 | 0.568 | 0.487 | 0.512 | 0.322 |
| NCI-H1355 | 0.418 | 0.346 | 0.388 | 0.393 | 1.23 | 1.22 | 1.31 | 1.22 | 0.974 | 0.937 | 1.09 | 0.626 | 0.407 | 0.405 | 0.44 | 0.379 | 0.355 | 0.278 | 0.449 | 0.337 |
| NCI-H1437 | 0.336 | 0.34 | 0.344 | 0.358 | 0.543 | 0.493 | 0.533 | 0.415 | 1.08 | 1.06 | 1.15 | 0.94 | 0.879 | 0.89 | 0.834 | 0.847 | 0.616 | 0.586 | 0.846 | 0.618 |
| NCI-H1650 | 0.394 | 0.328 | 0.319 | 0.289 | 0.219 | 0.2 | 0.189 | 0.193 | 1.17 | 1.12 | 1.41 | 0.649 | 0.687 | 0.703 | 0.53 | 0.414 | 0.571 | 0.471 | 0.548 | 0.644 |
